Data: US11980774B2, “Illumination devices and related methods for phototherapeutic light treatments in the presence of vitamins” (priority 2021, dated 2024)
Entries after “also recorded” stand apart in the source; their conditions may differ. Where two headings read alike, the source gives them in different places.

Tests used:
influenza A = assay type: cell-based; conditions: for reduction in viral loads of influenza A: 425 nm light 30 J/cm^2
[1] = test system: human coronavirus OC43 (HCoV-OC43); test: 425 nm light inhibition of HCoV-OC43 in the presence of vitamins in artificial saliva, virus titer (PFU/mL); assay type: cell-based; conditions: 10 μM RFN in artificial saliva, doses as low as 7.5 J/cm^2 (up to 45 J/cm^2), FIG. 1B
From the text: FIGS. 1A to 1D are provided in the context of HCoV-OC43, which is generally known as one of the viruses associated with the common cold. FIG. 1A is a chart illustrating an experimental control where light treatments were applied to HCoV-OC43 samples in the absence of any vitamins. […] A first sample included HCoV-OC43 in only its corresponding media, and the other two samples further included different artificial saliva sources (labeled as Saliva 1 and Saliva 2 in FIG. 1A).
FIG. 1B is a chart illustrating light treatments on HCoV-OC43 samples where various amounts of riboflavin (abbreviated as RFN) were diluted in a same type of artificial saliva and added to the HCoV-OC43 samples.
FIG. 1C is a chart illustrating light treatments on HCoV-OC43 samples where various amounts of ascorbate (abbreviated as AA) and 10 μM of RFN were diluted in a same type of artificial saliva and added to the HCoV-OC43 samples. […] The constant amount of RFN (10 μM) was selected based on the improvements illustrated in FIG. 1B.
FIG. 1D is a chart illustrating light treatments on HCoV-OC43 samples where various amounts of ascorbate were diluted in a same type of artificial saliva and added to the HCoV-OC43 samples in the absence of riboflavin.

influenza B = conditions: 10 μM riboflavin; 425 nm light 30 J/cm^2; FIG. 6F
human rhinovirus 1B = assay type: cell-based
MERS-CoV = assay type: cell-based; conditions: 1 μM riboflavin with various amounts of ascorbate in artificial saliva; 425 nm light 15 J/cm^2; FIG. 4B

`Cc1cc2nc3c(=O)[nH]c(=O)nc-3n(C[C@H](O)[C@H](O)[C@H](O)CO)c2cc1C` [riboflavin] was tested, and the “inhibition in viral load of influenza A by riboflavin dosing alone” value (influenza A; 0 J/cm^2 (no light), 0.1-10 μM riboflavin, FIG. 6E) was “some inhibition”, the “reduction in viral loads of influenza A” value (influenza A; 1 μM riboflavin, FIG. 6E) was “some reduction” and the “reduction in viral loads of influenza A” value (influenza A; 10 μM riboflavin, FIG. 6E) was “substantial reduction; also recorded: dramatic reduction”. For the same molecule, the “change in viral loads of influenza A” value (influenza A; 10 μM riboflavin, 425 nm light 32 J/cm^2, FIG. 6D) was “dramatic decreases”, the “change in HCoV-OC43 viral load compared with the 0 μM RFN sample” value [1] was “significant decreases” and the “reduction in viral loads of influenza B” value (influenza B) was “dramatic reduction”. The “reduction in viral loads of human rhinovirus 1B” value (human rhinovirus 1B; 10 μM riboflavin with various ascorbate in Saliva 2, 425 nm light 32 J/cm^2, FIG. 5B) was “some reduction”, the “influence on viral loads of human rhinovirus 1B” value (human rhinovirus 1B; 0.1, 1, 10 μM RFN in Saliva 1, 425 nm light up to 30 J/cm^2, FIG. 5A) was “little to no influence” and the “reductions in viral loads of MERS-CoV” value (MERS-CoV) was “greater than 99.999%”.
